From ChEMBL document CHEMBL1129234, “Synthesis of phosphorus-containing amino acid analogs as inhibitors of nitric oxide synthase” (Bioorg Med Chem Lett, 1996)

How the values were obtained:
Nitric oxide synthase 1 = Nitric oxide synthase 1 (Rattus norvegicus, UniProt P29476); assay: Compound was tested in vitro for inhibitory activity against nNOS (constitutive isoform found in neurons)
[1] = molecular target: T1, Nitric oxide synthase, inducible (Mus musculus, UniProt P29477); assay: Compound was tested in vitro for inhibitory activity against inducible nitric oxide synthase
T1 sequence (P29477 whole entry): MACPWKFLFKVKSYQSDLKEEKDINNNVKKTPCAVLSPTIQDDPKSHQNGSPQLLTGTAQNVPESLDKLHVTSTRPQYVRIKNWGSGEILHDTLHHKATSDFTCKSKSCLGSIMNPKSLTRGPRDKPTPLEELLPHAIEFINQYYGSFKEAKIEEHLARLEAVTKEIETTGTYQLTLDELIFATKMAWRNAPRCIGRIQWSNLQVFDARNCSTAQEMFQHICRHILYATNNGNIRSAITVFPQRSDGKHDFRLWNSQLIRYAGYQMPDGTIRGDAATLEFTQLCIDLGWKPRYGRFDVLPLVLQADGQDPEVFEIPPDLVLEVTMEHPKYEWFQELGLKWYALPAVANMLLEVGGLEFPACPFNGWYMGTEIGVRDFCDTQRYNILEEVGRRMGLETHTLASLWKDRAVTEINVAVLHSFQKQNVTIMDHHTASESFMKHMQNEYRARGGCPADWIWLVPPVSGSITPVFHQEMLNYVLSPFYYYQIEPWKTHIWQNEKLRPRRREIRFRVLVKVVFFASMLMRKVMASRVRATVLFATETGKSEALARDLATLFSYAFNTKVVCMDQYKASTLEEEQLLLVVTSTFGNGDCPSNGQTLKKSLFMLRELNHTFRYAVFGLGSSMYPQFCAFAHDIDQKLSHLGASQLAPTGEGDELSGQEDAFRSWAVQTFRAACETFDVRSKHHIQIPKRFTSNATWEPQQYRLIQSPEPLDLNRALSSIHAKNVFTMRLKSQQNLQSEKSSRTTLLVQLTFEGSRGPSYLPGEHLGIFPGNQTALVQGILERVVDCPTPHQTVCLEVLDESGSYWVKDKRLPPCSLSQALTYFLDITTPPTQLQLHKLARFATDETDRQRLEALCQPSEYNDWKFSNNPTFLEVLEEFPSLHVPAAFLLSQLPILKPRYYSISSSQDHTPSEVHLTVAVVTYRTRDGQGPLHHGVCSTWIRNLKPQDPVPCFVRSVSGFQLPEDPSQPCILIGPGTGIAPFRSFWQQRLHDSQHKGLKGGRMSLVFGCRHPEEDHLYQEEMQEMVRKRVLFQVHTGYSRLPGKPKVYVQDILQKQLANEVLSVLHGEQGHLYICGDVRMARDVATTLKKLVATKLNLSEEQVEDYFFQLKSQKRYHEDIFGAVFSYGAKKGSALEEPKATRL

Sequence of Nitric oxide synthase 1 (P29476 whole entry, canonical isoform): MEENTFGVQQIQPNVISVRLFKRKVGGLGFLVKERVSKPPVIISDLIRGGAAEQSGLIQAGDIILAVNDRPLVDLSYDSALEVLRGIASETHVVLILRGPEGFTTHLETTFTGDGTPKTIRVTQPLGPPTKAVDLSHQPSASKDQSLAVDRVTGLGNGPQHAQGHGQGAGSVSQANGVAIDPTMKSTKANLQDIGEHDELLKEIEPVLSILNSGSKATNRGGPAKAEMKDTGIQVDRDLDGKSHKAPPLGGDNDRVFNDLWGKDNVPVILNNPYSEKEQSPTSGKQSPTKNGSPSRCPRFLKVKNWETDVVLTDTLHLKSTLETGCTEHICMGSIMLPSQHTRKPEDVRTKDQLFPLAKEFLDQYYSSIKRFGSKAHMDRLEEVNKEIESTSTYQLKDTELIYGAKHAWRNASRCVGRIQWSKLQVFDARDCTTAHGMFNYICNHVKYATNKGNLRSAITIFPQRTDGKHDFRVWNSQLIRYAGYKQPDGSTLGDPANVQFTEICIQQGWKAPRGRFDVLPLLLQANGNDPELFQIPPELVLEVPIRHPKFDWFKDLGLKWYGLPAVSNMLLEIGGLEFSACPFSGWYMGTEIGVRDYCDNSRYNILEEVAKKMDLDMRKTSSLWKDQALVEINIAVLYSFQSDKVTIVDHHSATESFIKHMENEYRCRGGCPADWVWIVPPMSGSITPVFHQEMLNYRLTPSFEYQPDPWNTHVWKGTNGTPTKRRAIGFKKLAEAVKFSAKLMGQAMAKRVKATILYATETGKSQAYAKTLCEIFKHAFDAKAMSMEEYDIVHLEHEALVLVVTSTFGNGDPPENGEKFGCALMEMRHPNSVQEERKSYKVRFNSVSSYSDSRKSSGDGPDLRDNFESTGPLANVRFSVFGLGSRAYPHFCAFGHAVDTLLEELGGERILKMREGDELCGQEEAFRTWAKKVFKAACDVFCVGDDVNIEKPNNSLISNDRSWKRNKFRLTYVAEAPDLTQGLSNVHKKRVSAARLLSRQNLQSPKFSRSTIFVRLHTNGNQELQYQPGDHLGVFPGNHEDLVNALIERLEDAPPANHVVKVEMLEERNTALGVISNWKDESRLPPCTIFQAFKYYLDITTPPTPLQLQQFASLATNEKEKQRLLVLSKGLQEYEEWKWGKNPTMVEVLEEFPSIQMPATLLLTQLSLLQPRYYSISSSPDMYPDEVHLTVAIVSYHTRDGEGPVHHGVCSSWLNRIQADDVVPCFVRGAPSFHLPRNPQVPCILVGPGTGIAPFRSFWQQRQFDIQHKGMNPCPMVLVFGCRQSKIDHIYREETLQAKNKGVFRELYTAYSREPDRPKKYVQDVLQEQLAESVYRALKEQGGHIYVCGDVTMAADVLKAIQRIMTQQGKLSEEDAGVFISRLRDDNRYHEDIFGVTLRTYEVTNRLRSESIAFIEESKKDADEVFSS

## NC(N)=NCCCC(N)[PH](=O)O (stereo not drawn)
Nitric oxide synthase 1
  IC50: > 100 µM
[1]
  IC50: > 100 µM

## CNC(=N)NCCCC(N)P(=O)(O)O (stereo not drawn)
Nitric oxide synthase 1
  IC50: > 100 µM
[1]
  IC50: > 100 µM

## N=C(NCCC[C@H](N)C(=O)O)N[N+](=O)[O-] [NITROARGININE]
[1]
  IC50: 10 µM

## CNC(=N)NCCCC(N)[PH](=O)O (stereo not drawn)
Nitric oxide synthase 1
  IC50: 100 µM
[1]
  IC50: > 100 µM

## N/C(=N/CCCC(N)[PH](=O)O)N[N+](=O)[O-] (stereo not drawn)
Nitric oxide synthase 1
  IC50: 45 µM
[1]
  IC50: > 100 µM

## N/C(=N/CCCC(N)P(=O)(O)O)N[N+](=O)[O-] (stereo not drawn)
Nitric oxide synthase 1
  IC50: > 100 µM
[1]
  IC50: > 100 µM

## N=C(N)NCCCC(N)P(=O)(O)O (stereo not drawn)
Nitric oxide synthase 1
  IC50: > 100 µM
[1]
  IC50: > 100 µM
